The target in assay [1] is T1, Hexokinase HKDC1 (Homo sapiens, UniProt Q2TB90).
T1 sequence (Q2TB90 whole entry): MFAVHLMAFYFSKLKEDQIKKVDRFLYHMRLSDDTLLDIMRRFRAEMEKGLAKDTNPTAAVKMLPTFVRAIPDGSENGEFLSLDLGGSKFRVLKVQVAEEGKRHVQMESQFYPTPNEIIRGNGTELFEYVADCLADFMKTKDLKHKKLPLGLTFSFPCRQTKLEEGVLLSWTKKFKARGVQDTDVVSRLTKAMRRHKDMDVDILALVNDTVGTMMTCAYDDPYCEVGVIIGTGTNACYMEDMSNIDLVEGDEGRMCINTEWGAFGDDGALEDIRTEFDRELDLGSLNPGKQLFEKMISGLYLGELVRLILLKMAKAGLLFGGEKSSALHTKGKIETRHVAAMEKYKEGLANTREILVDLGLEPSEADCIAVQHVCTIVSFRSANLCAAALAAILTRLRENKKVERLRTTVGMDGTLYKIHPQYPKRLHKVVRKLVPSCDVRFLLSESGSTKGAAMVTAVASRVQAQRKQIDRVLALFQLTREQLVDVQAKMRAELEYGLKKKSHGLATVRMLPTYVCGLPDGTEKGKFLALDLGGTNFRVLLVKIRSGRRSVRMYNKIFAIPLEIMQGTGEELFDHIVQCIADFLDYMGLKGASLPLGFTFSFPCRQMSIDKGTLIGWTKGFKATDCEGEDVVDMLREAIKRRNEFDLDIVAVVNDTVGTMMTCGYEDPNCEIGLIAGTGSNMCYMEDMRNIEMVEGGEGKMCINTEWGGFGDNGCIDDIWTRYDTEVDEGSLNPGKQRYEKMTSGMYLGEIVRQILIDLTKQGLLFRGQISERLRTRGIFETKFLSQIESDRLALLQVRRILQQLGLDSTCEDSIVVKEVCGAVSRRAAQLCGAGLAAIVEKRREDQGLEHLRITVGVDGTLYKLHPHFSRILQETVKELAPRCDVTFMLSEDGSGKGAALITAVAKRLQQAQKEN
The experiment in a line: SAR analysis of small molecule inhibitors of hexokinase domain containing I (HKDC1). [Related pubchem assays (depositor defined):AID493160, AID493190]. The assay is classed as functional.

Assay [2] deals with T2, Hexokinase-1 (Homo sapiens, UniProt P19367).
T2 sequence (P19367 whole entry): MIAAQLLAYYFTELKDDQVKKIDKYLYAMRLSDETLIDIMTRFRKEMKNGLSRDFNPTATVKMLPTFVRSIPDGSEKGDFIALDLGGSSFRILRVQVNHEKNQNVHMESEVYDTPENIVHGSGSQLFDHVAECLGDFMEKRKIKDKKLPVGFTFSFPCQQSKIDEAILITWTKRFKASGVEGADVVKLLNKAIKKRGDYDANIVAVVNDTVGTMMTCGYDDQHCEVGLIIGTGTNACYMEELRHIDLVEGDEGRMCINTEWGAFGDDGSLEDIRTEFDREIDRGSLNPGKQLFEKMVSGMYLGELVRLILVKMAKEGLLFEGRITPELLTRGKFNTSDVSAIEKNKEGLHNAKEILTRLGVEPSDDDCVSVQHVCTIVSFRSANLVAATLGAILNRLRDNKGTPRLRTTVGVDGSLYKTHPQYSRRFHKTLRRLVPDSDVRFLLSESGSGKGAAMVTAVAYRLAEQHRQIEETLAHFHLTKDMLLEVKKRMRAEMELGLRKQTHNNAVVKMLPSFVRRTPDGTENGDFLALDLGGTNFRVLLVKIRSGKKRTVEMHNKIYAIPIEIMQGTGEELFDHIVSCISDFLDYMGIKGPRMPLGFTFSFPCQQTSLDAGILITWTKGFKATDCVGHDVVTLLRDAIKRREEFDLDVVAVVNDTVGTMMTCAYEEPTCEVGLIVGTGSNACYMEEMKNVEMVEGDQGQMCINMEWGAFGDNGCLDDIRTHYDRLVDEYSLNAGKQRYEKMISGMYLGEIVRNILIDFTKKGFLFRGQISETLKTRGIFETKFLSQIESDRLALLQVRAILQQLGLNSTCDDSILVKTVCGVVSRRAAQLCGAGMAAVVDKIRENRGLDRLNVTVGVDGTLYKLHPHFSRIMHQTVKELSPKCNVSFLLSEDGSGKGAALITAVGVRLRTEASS
The assay is described as follows: SAR analysis of small molecule inhibitors of hexokinase domain containing I (HKDC1) in the hexokinase 1 selectivity assay. [Related pubchem assays (depositor defined):AID493160, AID493190]. Format: functional.

A short description of assay [3]: viability of BHK-21 cells – cell-based, secondary screen, cytotoxicity control for flavivirus guanylyltransferase probe project (AID 624078). The assay is classed as functional.
The target of a further assay is T3, Caspase-3 (Homo sapiens, UniProt P42574).
T3 sequence (P42574 whole entry): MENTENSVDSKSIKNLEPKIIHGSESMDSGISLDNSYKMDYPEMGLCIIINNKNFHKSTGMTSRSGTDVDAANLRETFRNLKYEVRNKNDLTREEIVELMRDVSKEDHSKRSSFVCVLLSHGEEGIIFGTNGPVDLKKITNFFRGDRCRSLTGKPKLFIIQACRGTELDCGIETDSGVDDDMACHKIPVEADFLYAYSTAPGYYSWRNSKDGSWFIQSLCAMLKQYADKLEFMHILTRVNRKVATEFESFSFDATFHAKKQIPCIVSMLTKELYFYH
The experiment in a line: inhibition of recombinant caspase-3 activity – biochemical, luminescence, set 2, selectivity assay for SENP protease inhibitor project, SAR follow-up (AID 588599). The assay is classed as functional.

Assay [4] deals with T4, Sentrin-specific protease 8 (Homo sapiens, UniProt Q96LD8).
T4 sequence (Q96LD8 whole entry): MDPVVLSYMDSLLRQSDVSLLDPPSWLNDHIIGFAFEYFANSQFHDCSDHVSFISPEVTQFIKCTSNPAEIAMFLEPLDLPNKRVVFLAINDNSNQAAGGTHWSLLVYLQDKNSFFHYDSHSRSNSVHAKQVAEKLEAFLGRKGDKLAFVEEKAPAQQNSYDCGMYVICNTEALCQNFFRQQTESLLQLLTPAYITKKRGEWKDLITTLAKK
The experiment in a line: inhibition of sentrin protease 8 – biochemical, luminescence, set 2, SAR follow-up (AID 588601). The assay is classed as functional.

Assay [5] addresses T5, Sentrin-specific protease 6 (Homo sapiens, UniProt Q9GZR1).
T5 sequence (Q9GZR1 whole entry): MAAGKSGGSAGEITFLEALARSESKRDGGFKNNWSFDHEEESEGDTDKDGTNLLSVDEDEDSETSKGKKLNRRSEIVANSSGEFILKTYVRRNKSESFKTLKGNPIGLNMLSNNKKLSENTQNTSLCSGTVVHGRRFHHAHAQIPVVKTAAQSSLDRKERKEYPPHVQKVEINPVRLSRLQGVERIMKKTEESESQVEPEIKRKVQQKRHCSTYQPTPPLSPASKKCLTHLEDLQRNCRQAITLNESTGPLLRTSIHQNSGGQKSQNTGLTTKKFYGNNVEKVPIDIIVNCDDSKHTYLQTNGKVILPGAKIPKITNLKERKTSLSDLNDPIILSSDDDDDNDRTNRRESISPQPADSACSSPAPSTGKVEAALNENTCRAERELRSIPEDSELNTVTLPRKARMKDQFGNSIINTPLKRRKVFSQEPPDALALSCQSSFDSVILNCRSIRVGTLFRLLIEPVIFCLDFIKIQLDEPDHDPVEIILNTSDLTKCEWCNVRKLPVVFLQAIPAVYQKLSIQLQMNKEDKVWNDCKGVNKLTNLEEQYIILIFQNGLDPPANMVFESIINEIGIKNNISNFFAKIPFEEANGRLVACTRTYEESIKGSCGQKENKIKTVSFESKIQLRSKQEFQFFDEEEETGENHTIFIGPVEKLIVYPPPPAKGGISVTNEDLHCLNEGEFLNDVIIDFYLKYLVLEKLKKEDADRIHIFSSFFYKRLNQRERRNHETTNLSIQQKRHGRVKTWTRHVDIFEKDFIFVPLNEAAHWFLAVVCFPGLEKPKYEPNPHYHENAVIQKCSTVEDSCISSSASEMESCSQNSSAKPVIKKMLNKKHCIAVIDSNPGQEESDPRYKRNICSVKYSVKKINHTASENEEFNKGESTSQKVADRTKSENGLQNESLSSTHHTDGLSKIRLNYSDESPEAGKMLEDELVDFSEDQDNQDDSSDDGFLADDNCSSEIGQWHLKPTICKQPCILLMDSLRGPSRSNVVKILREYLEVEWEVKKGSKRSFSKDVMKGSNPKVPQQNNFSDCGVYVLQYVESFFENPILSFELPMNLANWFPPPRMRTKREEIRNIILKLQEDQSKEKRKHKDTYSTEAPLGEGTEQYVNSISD
The experiment in a line: inhibition of human SENP6 catalytic domain – biochemical, luminescence, set 2, SAR follow-up (AID 588598). Format: functional.

For assay [6], the target named is T6, Sentrin-specific protease 7 (Homo sapiens, UniProt Q9BQF6).
T6 sequence (Q9BQF6 whole entry): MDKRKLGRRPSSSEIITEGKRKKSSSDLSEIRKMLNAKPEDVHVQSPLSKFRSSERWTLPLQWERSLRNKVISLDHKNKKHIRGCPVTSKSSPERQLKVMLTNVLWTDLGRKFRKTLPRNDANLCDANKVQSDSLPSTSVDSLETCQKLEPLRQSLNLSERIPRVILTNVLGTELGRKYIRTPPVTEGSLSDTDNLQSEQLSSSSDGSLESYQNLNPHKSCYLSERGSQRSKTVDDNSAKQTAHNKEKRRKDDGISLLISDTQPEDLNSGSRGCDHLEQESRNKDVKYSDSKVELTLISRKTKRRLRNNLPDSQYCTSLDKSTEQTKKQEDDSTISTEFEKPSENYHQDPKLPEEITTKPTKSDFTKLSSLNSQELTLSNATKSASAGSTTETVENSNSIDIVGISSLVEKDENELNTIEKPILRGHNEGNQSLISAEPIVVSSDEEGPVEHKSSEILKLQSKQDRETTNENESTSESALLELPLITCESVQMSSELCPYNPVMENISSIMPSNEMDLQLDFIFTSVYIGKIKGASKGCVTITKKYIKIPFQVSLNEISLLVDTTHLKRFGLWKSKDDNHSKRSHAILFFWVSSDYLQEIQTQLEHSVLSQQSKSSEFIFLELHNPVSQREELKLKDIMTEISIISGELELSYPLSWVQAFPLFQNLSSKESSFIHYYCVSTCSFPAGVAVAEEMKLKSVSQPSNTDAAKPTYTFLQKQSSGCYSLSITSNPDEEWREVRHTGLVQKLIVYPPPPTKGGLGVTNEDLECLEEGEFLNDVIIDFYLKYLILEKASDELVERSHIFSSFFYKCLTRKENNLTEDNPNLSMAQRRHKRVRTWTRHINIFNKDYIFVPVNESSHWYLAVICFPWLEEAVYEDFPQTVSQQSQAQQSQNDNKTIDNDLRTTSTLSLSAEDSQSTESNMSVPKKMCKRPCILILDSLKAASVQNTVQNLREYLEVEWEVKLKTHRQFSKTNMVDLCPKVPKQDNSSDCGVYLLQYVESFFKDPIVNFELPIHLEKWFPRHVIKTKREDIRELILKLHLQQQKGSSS
The experiment in a line: inhibition of human SENP7 cleavage activity – biochemical, luminescence, set 2, SAR follow-up (AID 588600). The assay is classed as functional.

In the next assay the test system is NIH3T3. The assay is described as follows: mammalian cell viability counter-check – Alamar Blue, fluconazole, dry powder, cytotoxicity control for antifungal drug resistance project, dose response (AID 488809). The assay is classed as functional, cell-based. As to conditions: Mus musculus. Background: Resazurin is reduced to fluorescent resorufin, in cell work by metabolically active cells.

Assay [7] deals with T2, Hexokinase-1. The assay is described as follows: hexokinase 1 activity inhibitors, potency – biochemical, set 2, resazurin fluorescence coupled readout, selectivity assay for HKDC1 inhibitor project, SAR follow-up (AID 588356). The assay is classed as functional.
Assay [8] has as its target T1, Hexokinase HKDC1. The experiment in a line: analog inhibition of human HKDC1 activity – biochemical, set 2, SAR follow-up (AID 588355). The assay is classed as functional.

Among the data in ChEMBL document CHEMBL1201862, “PubChem BioAssay data set” (2004) are IC50, CC50 and AC50 values, retold here.

The source made the active and inactive calls.

What is called IC50 is the concentration needed to halve the response being measured. The term CC50 denotes the concentration that lowers cell viability or growth by half. With `O=C(O)CSc1cc(NS(=O)(=O)c2ccc(F)cc2)c2ccccc2c1O`, the IC50 on Hexokinase HKDC1 [1] is 5.02 µM (active); at Hexokinase-1 [2], 40.3 µM (inactive). In [3], the CC50 is 6.86 µM (active).
For `CCCS(=O)(=O)c1c(S(=O)(=O)CCC)c2c(C)cccn2c1C(=O)N/N=C\c1c[nH]c2ccccc12`, the IC50 (on Caspase-3; in [4]; in assay [5]; in assay [6]) was > 99 µM (inactive) throughout.
What is called AC50 is the midpoint of the concentration-response curve, whichever way the signal moves. As to `O=S(=O)(c1ccc(Cl)cc1)N1CCN(c2ccnc3cc(Cl)ccc23)CC1`, in the assay on NIH3T3, the AC50 was 27.7 µM (active).
Take `CCCCN1C(=O)C(NC(C)=O)c2cc(Cl)ccc21` (stereo not given): the IC50 on Hexokinase-1 [7] and on Hexokinase HKDC1 [8] was > 80 µM (inactive) in each case.
